In article PMC6155662, “Trypanocidal Activity of Quinoxaline 1,4 Di-N-oxide Derivatives as Trypanothione Reductase Inhibitors” (Molecules : A Journal of Synthetic Chemistry and Natural …, 2017):

Key:
[1] = system: T. cruzi INC-5 epimastigotes; assay: Viability (MTT) assay on T. cruzi epimastigotes; assay type: cell-based, Trypanosoma cruzi; conditions: Trypanosoma cruzi, 24 h, mean and SD of triplicate
Method: In this study, two strains of T. cruzi isolated in Mexico were used. […] Epimastigotes were cultured in vitro in liver infusion-tryptose (LIT) medium supplemented with 10% heat inactivated fetal bovine serum (FBS) (Gibco) and 100 U/mL penicillin-streptomycin (In vitro S.A.), and incubated at 27 °C. CD1 mice, aged 6–8 weeks, were infected with T. cruzi to obtain bloodstream trypomastigote samples.
Viability assays of T. cruzi epimastigotes using 3-(4,5-dimethylthiazol-2-yl)-2,5-diphenyltetrazolium bromide (MTT) were performed. Briefly, the parasites were harvested during the exponential growth phase for a period of five days. In a 96-well microplate 1x10^6 epimastigotes were deposited in brain-heart infusion (BHI) medium supplemented with 10% FBS and 100 U/mL antibiotic-antifungal mixture (Gibco). […] Each well reached a final volume of 100 µL. Each condition was assessed in triplicate. The microplate was incubated for 24 h at 27 °C in darkness. Afterwards, 10 μL of a 5 mg/mL MTT solution was added and the plate was incubated for 20 h at 27 °C. Then 200 μL of 10% dodecyl sulfate (SDS)/0.1% HCl solution was added to dissolve formazan salts; the plate was incubated an additional 4 h. Finally, the plate was read at 570 nm in a spectrophotometer (Multiskan EX Thermo Electron, Taipei, Taiwan). The amount of viable cells was proportional to the amount of formazan produced. […] Later the results were converted to micromolar units. […] As a […] control, parasites were incubated only in culture medium with a 1% DMSO concentration, corresponding to the highest sample dilution of DMSO [34, 35, 36].

[2] = Cytotoxicity assay (Alamar Blue) on macrophages; assay type: cell-based, murine; conditions: mouse, J774A.1 macrophages, mean and SD of triplicate
Method: The murine macrophage cell line J774.A1 was maintained in culture flasks with RPMI 1640 medium supplemented with 10% FBS, 1% MEM-NEAA medium (Gibco) and 100 U/mL antibiotic-antifungal mixture (Gibco). Cells were incubated at 37 °C with 5% CO2 and humidity. Trypsinized J774.A1 macrophages were washed and viability was assessed by the trypan blue dye (Sigma-Aldrich, Toluca, Edo de Mexico, Mexico) exclusion assay. In a 96-well microplate, 50,000 macrophages were seeded per well and a dose-response assay was performed. Compounds were evaluated using six-fold serial dilutions ranging from 100 µg/mL to 0.3 µg/mL of final concentration. Each compound was tested in triplicate. After 20 h incubation, Alamar Blue was added (10% v/v) and cells were incubated for an additional 4 h period. Results were obtained as previously described and CC50 was calculated. As a negative control of cytotoxicity, cells were incubated only in the presence of 0.1% DMSO [39, 40].

[3] = system: T. cruzi bloodstream trypomastigotes INC-5 strain; assay: microbe, parasite or virus in culture; assay type: cell-based; conditions: Trypanosoma cruzi; for CC50: 24 h, bloodstream trypomastigotes, 24 h at 4 °C (called IC50 in abstract), read-out: LC50 INC-5 Strain; for killing at 50 µg/mL: 50 μg/mL, 24 h at 4 °C, infected mouse blood, read-out: % Lysis at 50 μg/mL INC-5 Strain
Method: (§1) In this study, two strains of T. cruzi isolated in Mexico were used. T. cruzi NINOA strain (MHOM/MX/1994/NINOA) was obtained from a patient with acute Chagas disease and T. cruzi INC-5 (MHOM/MX/1994/INC5) was isolated from a patient in the chronic phase of the disease. Epimastigotes were cultured in vitro in liver infusion-tryptose (LIT) medium supplemented with 10% heat inactivated fetal bovine serum (FBS) (Gibco) and 100 U/mL penicillin-streptomycin (In vitro S.A.), and incubated at 27 °C. CD1 mice, aged 6–8 weeks, were infected with T. cruzi to obtain bloodstream trypomastigote samples. Animal experiments were performed according to Norma Oficial Mexicana (NOM-062-Z00-1999) published on 22 August, 2009.
(§2) CD1 female mice 6–8 weeks old were infected with T. cruzi bloodstream trypomastigotes of the INC-5 and NINOA strains. The course of infection continued for 4–6 weeks. At the peak of parasitemia blood was obtained by cardiac puncture using sodium heparin as an anticoagulant. The blood was adjusted to 1 × 10^6 bloodstream trypomastigotes/mL.
(§3) In each well of the 96-well plate, 195 μL of infected blood and 5 μL of quinoxaline 1,4-di-N-oxide derivatives or reference drug dilutions were seeded, with each well reaching a final volume of 200 µL. Each assay was performed in triplicate. Initially, all compounds were tested at 50 μg/mL. […] As a negative control of lysis, wells with untreated blood trypomastigotes were used, and as a positive control, wells with the reference drugs were used. The microplates were incubated at 4 °C for 24 h. Bloodstream trypomastigotes were quantified by the method of Brener-Pizzi, 5 μL of blood were placed on a slide and covered with a coverslip 13 × 13 mm. The mobile protozoa were counted in 15 fields at 40× magnification using an optical microscope. The percentage lysis was determined by comparing the remaining trypomastigotes against the negative control. LC50 was determined with the Probit statistical tool. The results were later converted to micromolar units.

[4] = system: T. cruzi bloodstream trypomastigotes NINOA strain; assay: microbe, parasite or virus in culture; assay type: cell-based; conditions: Trypanosoma cruzi; for killing at 50 µg/mL: 50 μg/mL, 24 h at 4 °C, infected mouse blood, read-out: % Lysis at 50 μg/mL NINOA Strain; for LC50: 24 h
Method: as §1, §2, §3

IC50 [1] [µM] | SMILES | CC50 at 24 h [2] [µM] | CC50 [3] [µM] | killing at 50 µg/mL [3] [%] | killing at 50 µg/mL [4] [%] | LC50 [4] [µM]
42.3 ± 5.76 | O=C(Cn1ccnc1[N+](=O)[O-])NCc1ccccc1 [Bnz, benznidazole, reference compound] | 352 ± 17.1 | 85.3 ± 16.7 | 53.5 ± 5.6 | 58.1 ± 4.5 | 
43.7 ± 8.6 | COC(=O)c1c(C)[n+]([O-])c2ccc(C(=O)OC(C)C)cc2[n+]1[O-] [Compound T-064, Isopropyl methyl-3-methyl-quinoxaline-2,7-dicarboxylate 1,4-di-N-oxide] | 135 ± 11.1 |  | 1.7 ± 2 | 3.2 ± 2 | 
> 148 | CCOC(=O)c1c(C)[n+]([O-])c2ccc(C(=O)OC(C)C)cc2[n+]1[O-] [Compound T-065, Isopropyl ethyl-3-methylquinoxaline-2,7-dicarboxylate 1,4-di-N-oxide] | > 296 |  | 3.78 ± 5.7 | 0.77 ± 1.58 | 
> 137 | Cc1c(C(=O)OC(C)(C)C)[n+]([O-])c2cc(C(=O)OC(C)C)ccc2[n+]1[O-] [Compound T-066, Isopropyl tert-butyl-3-methylquinoxaline-2,7-dicarboxylate 1,4-di-N-oxide] | > 273 |  | 5.4 ± 3.7 | 2.6 ± 4.3 | 
12.1 ± 0.4 | CCOC(=O)Cc1c(C(=O)OCC)[n+]([O-])c2cc(C(=O)OC(C)C)ccc2[n+]1[O-] [Compound T-067, Isopropyl ethyl-3-(2-ethoxy-2-oxoethyl) quinoxaline-2,7-dicarboxylate 1,4-di-N-oxide] | 44.4 ± 7.1 |  | 14.4 ± 9.2 | 18.5 ± 2.2 | 
4.95 ± 0.5 | CC(C)OC(=O)c1ccc2c(c1)[n+]([O-])c(C(=O)c1cccs1)c(C(F)(F)F)[n+]2[O-] [Compound T-069, Isopropyl 2-(thiophene-2-carbonyl)-3-trifluoromethylquinoxaline-7-carboxylate 1,4-di-N-oxide] | 12.8 ± 0.6 | 111 ± 9.3 | 77.7 ± 9.3 | 57.3 ± 2.8 | 98 ± 6.1
2.83 ± 0.7 | CC(=O)c1c(C(F)(F)F)[n+]([O-])c2ccc(C(=O)OC(C)C)cc2[n+]1[O-] [Compound T-070, Isopropyl 2-acetyl-3-trifluoromethylquinoxaline-7-carboxylate 1,4-di-N-oxide] | 17.5 ± 0.7 |  | 10.8 ± 5.4 | 46 ± 2.7 | 
4.03 ± 0.5 | CC(C)OC(=O)c1ccc2c(c1)[n+]([O-])c(C(=O)c1ccccc1)c(C(F)(F)F)[n+]2[O-] [Compound T-071, Isopropyl 2-benzoyl-3-trifluoromethylquinoxaline-7-carboxylate 1,4-di-N-oxide] | 6.7 ± 0.8 | 103 ± 8.3 | 69.2 ± 5.1 | 58.8 ± 4.4 | 97.8 ± 6.3
33.7 ± 9.2 | CC(C)OC(=O)c1ccc2c(c1)[n+]([O-])c(C(=O)c1ccco1)c(C(F)(F)F)[n+]2[O-] [Compound T-073, Isopropyl 2-(furyl-2-carbonyl)-3-trifluoromethylquinoxaline-7-carboxylate 1,4-di-N-oxide] | 55.4 ± 2.9 |  | 22.1 ± 4.32 | 35 ± 4.5 | 
139 ± 13.5 | CCCOC(=O)c1ccc2c(c1)[n+]([O-])c(C(=O)OC)c(C)[n+]2[O-] [Compound T-088, n-Propil methyl-3-methylquinoxaline-2,7-dicarboxylate 1,4-di-N-oxide] | 143 ± 9.7 |  | 33.6 ± 6.8 | 16.3 ± 11.1 | 
7.59 ± 1.4 | CCCOC(=O)c1ccc2c(c1)[n+]([O-])c(C(=O)c1cccs1)c(C(F)(F)F)[n+]2[O-] [Compound T-089, n-Propil 2-(thiophene-2-carbonyl)-3-trifluoromethylquinoxaline-7-carboxylate 1,4-di-N-oxide] | 7.71 ± 0.7 | 122 ± 6.5 | 42 ± 6.5 | 51.6 ± 3.4 | 115 ± 8.4
